From patent publication EP3906926A1, “PROLINE HYDROXYLASE INHIBITORS FOR USE IN THE SKELETAL MUSCLE REGENERATION” (Policlinico San Donato S.p.A.- Istituto di Ricovero e Cura …, priority 2020, dated 2021)

Columns and labels:
HIF-1α = assay: Western blot of HIF-1α nuclear translocation; type: cell-based, murine; settings: IOX2 or FG-4592 for 24 hours, vs untreated control; Lamin A/C housekeeper
Procedure: (§1) For nuclei separation, 5 x 10^6 cells were collected after enzymatic digestion with trypsin (Merck), centrifuged at the maximum speed, resuspended in 400 µl of Buffer A (10 mM KCl, 0.1 mM EDTA, 1 mM DTT, 10 mM Hepes, pH 7.9), containing protease and phosphatase inhibitors cocktail (Merck), and incubated on ice for 20 minutes. Then, 10% NP40 was added to the cell suspension, mixed for 40 seconds, and centrifuged 40 seconds at the maximum speed. After centrifugation, the pellet was resuspended in 80 µl of Buffer C (0.4M NaCl, 1 mM EDTA, 1 mM DTT, 20 mM Hepes, pH 7.9), containing a protease and phosphatase inhibitors cocktail, and then mixed for 30 minutes at 4°C at the maximum speed. Finally, the nuclear suspension was centrifuged for 5 minutes at 4°C at the maximum speed, collected and transferred in a new tube. The total protein content was determined with the BCA Protein Assay Kit (Pierce), according to the manufacturer's instructions.
Proteins were denaturated by boiling for 10 minutes in sample buffer (0.6 g/100 mL Tris, 2 g/100 mL SDS, 10% glycerol, 1% 2-mercaptoethanol, pH 6.8) and loaded into 10% SDS-PAGE gel, then transferred onto a nitrocellulose membrane (Trans-blot, Bio-Rad Laboratories) by electroblotting. Nitrocellulose membranes were incubated with a blocking solution containing 5% (w/v) non-fat dry milk or 5% (w/v) BSA (Merck) in Tris-buffer saline with 0.1% Tween® 20 (TBS-T) for 1 hour. […] Membranes were washed three times for 10 minutes with TBS-T, and then incubated with the appropriate anti-mouse, anti-rabbit, or anti-goat HRP-conjugated secondary antibodies (Dako, Agilent Technologies), 1:2000 dilution, for 1 hour at room temperature. After three washes for 10 minutes with TBS-T, the immunoreactive bands were visualized using the enhanced chemiluminescence detection kit reagents (ECL Advance, GeHealthcare), according to the manufacturer's instructions.
as §1, with “For total proteins extraction, 7.5 x 10^4 cells were seeded and harvested at 7th days of skeletal muscle differentiation, as previously described. Cells were collected after enzymatic digestion with trypsin (Merck), lysed by sonication and centrifuged at 800 xg for 10 minutes. Supernatant was used to determine total protein content with the BCA Protein Assay Kit (Pierce), according to the manufacturer's instructions. For” for “For”, “(0.4 M” for “(0.4M”

C2C12 murine myoblasts = assay: RealTime-Glo MT Cell Viability Assay; settings: at IC50 concentrations (50 µM IOX2, 40 µM FG-4592), 24 hours, vs untreated controls
Procedure: RealTime-Glo™ kits MT Cell Viability Assay (Promega) was used to investigate the effects of IOX2 and FG-4592 treatment on cell viability. Briefly, 5 x 10^3 C2C12 murine myoblasts were seeded in a 96 well plate and incubated for 24 hours (T0) with MT Cell Viability Substrate (1:1000 dilution) and NanoLuc® Enzyme (1:1000 dilution). Then, 50 µM IOX2 or 40 µM FG-4592 were added to the cell cultures and incubated for other 24 hours before luminescence analysis.
RealTime-Glo™ kits MT Cell Viability Assay (Promega) was used to investigate the effects of PLG treatment on cell viability. Briefly, 5 x 10^3 C2C12 murine myoblasts were seeded in a 96 well plate and incubated for 24 hours (T0) with MT Cell Viability Substrate (1:1000 dilution) and NanoLuc® Enzyme (1:1000 dilution). Then, each PLG inhibitor was added at its EC50 to the cell cultures and incubated for other 24 hours before luminescence analysis.

murine myoblasts C2C12 = assay: Skeletal muscle differentiation, MHC immunofluorescence (fusion and differentiation indexes); type: cell-based; settings: IOX2 or FG-4592 24 hours in GM, then 7 days in DM without inhibitor; vs untreated controls
Procedure: (§2) The DM was changed every day for 7 days. Cells were analyzed at 24 hours post-treatment (PT), at 3rd and 7th days of skeletal muscle differentiation.
After differentiation for 7 days in DM, cells were washed with phosphate saline buffer (PBS) and fixed for 15 minutes in 4% (w/v) paraformaldehyde at room temperature. For permeabilization and blocking, cells were incubated for 1 hour in the presence of PBS 0.1% (v/v) Triton X-100 (TX-100, Merck) and 5% (w/v) FBS (Merck) at room temperature. […] After incubation, cells were washed three times in PBS and incubated for 1 hour at room temperature with an anti-mouse FITC-conjugated secondary antibody (Jackson ImmunoResearch), diluted 1:200. […] Myogenesis was assessed by measuring the myotube area and the number of myonuclei per myotube using a fluorescent microscope (Olympus TH4-200) equipped with an acquisition camera. To quantify both differentiation and fusion indexes, ten fields were chosen randomly and, for each field, a minimum of one hundred myosin-positive myotubes with more than two myonuclei were measured using the ImageJ v1.49o software. The area and the number of nuclei per myotube was the mean of ten measurements averaged from three different experiments.
as §2

PHD2 = assay: qPCR of HIF-1α target gene PHD2; type: cell-based, murine; settings: IOX2 or FG-4592 treatment, vs untreated controls
Procedure: (§3) Total RNA was isolated using ReliaPrep™ RNA Miniprep Systems (Promega), and reverse transcribed to cDNA using the iScript cDNA synthesis kit (BioRad), according to the Manufacturer's instructions. Real-Time Quantitative PCR was performed on 10 ng of cDNA template, 0.2 µM primers, and GoTaq® qPCR Master Mix (Promega) in 20 µl final volume using a StepOnePlus® Real-Time PCR System (Applied Biosystem). […] RPL13 was used as the housekeeping gene. The amplification program consisted in an initial denaturation at 95°C for 3 minutes, followed by 40 cycles of 5 seconds each at 95°C and 30 seconds at 57°C; WNT7a was amplified at 53°C. Relative quantification of target genes was performed in triplicate and calculated by the equation 2^-ΔΔCt.
as §3, with “ReliaPrepTM” for “ReliaPrep™”, “2-ΔΔCt.” for “2^-ΔΔCt.”

Row | Structure (SMILES) | HIF-1α nuclear translocation, protein increase (HIF-1α) [fold] | Cell viability (C2C12 murine myoblasts) | increase in the differentiation index (murine myoblasts C2C12) [fold] | increase in the expression of PHD2 (PHD2) [fold] | fusion index (murine myoblasts C2C12)
1 | Cc1nc(C(=O)NCC(=O)O)c(O)c2ccc(Oc3ccccc3)cc12 [FG-4592, Roxadustat] | 15 | no significant changes | 1.3 | 4.8 | 
2 | O=C(O)CNC(=O)c1c(O)c2ccccc2n(Cc2ccccc2)c1=O [IOX2] | 8.8 | no significant changes | 1.5 | 4.4 | no significant changes
